Assay results from article PMC11817372, “The Silkworm (Bombyx mori) Neuropeptide Orcokinin’s Efficiency in Whitening and Skincare” (International Journal of Molecular Sciences, 2025).
Like-named read-outs stand apart in the source and are kept apart here.

Key:
Tyrosinase [1] = tested on: Tyrosinase; design: method as in PMID 23134995; conditions: cited from earlier work
Excerpt: Neuropeptides with biological functions were called neuropeptides if they were secreted by neural tissues and involved in nervous system functions, which were characterized by low content, high activity, and extensive and complex functions (including food intake regulation, improved metabolism, neural regulation and reproduction, etc.). However, there have been few reports on the pigmentation regulation of neuropeptide. One important function of BommoOK, as a multifunctional neuropeptide, was pigmentation regulation. In silkworm q-l (quail like) mutants, BommoOK was a losing function, a ...

Tyrosinase [2] = conditions: for Inhibitory rate on tyrosinase, Average: average over 5, 0.1, 0.05 and 0.025 mmol/L; for highest inhibition rate on tyrosinase: highest rate among the tested concentrations; for effect on tyrosinase reaction course (in words): absorbance time course 10-180 s compared with negative control completed at 60 s
Method: The peptide solution (5 mmol/L) was then diluted 50-fold (0.1 mmol/L), 100-fold (0.05 mmol/L), and 200-fold (0.025 mmol/L), respectively, and then the inhibitory rate was calculated after a 5 min reaction.

[3] = tested on: UV-irradiated guinea pig skin; type: in vivo, guinea pig (Cavia porcellus); conditions: peptide solution 5 mmol/L painted on UV-irradiated back skin, sections after 24 h; for pathological tissue findings (Masson staining and HE staining): versus deionized water side
Method: Model preparation: Six adult healthy guinea pigs with normal development were selected. The fur on both sides of the back was shaved to expose a circular area with a diameter of 4 cm. Ultraviolet (UV) irradiation was performed at 10 cm from the skin in the exposed area, once daily with a dose of 700 mJ/cm^2, and continued for 7 consecutive days, with a cumulative dose of […]. A metal halide lamp was used as the light source with a power of 1000 W and a peak spectrum of 360 nm, including 70% long-wave ultraviolet (UVA) and 4% medium-wave ultraviolet (UVB). After UV-irradiation treatment, the peptide solution (5 mmol/L) was painted to the right, and an equal amount of deionized water was applied to the left. Tissue sections and staining observations were performed after 24 h.
Sectioning: Approximately 0.4 cm^3 of subcutaneous tissue from the drug administration area was excised, cleaned with physiological saline, and fixed. After dehydration (DIAPATH, Donatello, Milan, Italy) and hardening treatment, it was subsequently made transparent and subjected to a wax immersion treatment. After paraffin embedding (Wuhan Junjie Electronics Co., Ltd., JB-P5, Wuhan, China), the tissue was sectioned using a microtome (Shanghai Leica Instrument Co., Ltd., RM2016, Shanghai, China). The arranged sections were organized (Zhejiang Jinhua Kedi Instrument Equipment Co., Ltd., KD-P, Jinhua, China) for HE staining and Masson staining.
HE staining: The paraffin sections were placed in xylene I for 20 min, xylene II for 20 min, anhydrous ethanol I for 5 min, anhydrous ethanol II for 5 min, and 75% alcohol for 5 min for dewaxing treatment; after washing with water, they were placed into hematoxylin staining solution for 3–5 min, differentiated with differentiation solution after washing, and returned to blue with bluing solution after washing; after rinsing with running water, they were dehydrated with 85% and 95% alcohol solutions for 5 min each successively; after immersed into eosin staining solution for 5 min, they were placed in anhydrous ethanol I for 5 min, anhydrous ethanol II for 5 min, anhydrous ethanol III for 5 min, xylene I for 5 min, and xylene II for 5 min for transparency treatment. After, they were sealed with neutral gum, they were examined (Nikon Eclipse E100, Tokyo, Japan) and imaged (Nikon DS-U3, Tokyo, Japan) using a microscope.
Masson staining: The paraffin sections were placed in xylene I for 20 min, xylene II for 20 min, anhydrous ethanol I for 5 min, anhydrous ethanol II for 5 min, and 75% alcohol for 5 min for dewaxing treatment; after washing with water, they were immersed into Masson A solution overnight, washed with water, then immersed into a mixture of Masson B and Masson C for 1 min, washed with water, then differentiated using an alcohol solution containing 1% hydrochloric acid. Then, they were washed with water, then immersed into Masson D solution for 6 min, washed with water, then immersed into Masson E solution for 1 min, drained, and directly immersed into Masson F solution for 30 s. Subsequently, the sections were rinsed with 1% glacial acetic acid for differentiation, dehydrated with anhydrous ethanol three times for 5 min each, treated with xylene for transparency for 5 min, and then sealed with neutral gum. The sections were examined (Nikon Eclipse E100, Japan) and imaged (Nikon DS-U3, Japan) using a microscope.

B. mori = conditions: CRISPR/cas9 tool and mature peptide subcutaneous injection; cited from earlier work
[4] = 0.025 mmol/L, after 5 min reaction
[5] = 0.05 mmol/L, after 5 min reaction
[6] = 0.1 mmol/L, after 5 min reaction

| Compound | whitening effect relative to β-arbutin (Tyrosinase [1]) | duration of whitening effect (Tyrosinase [1]) | Inhibitory rate on tyrosinase (Tyrosinase [2]; [4]) | Inhibitory rate on tyrosinase (Tyrosinase [2]; [5]) | Inhibitory rate on tyrosinase (Tyrosinase [2]; [6]) | Inhibitory rate on tyrosinase (Tyrosinase [2]; 5 mmol/L, after 5 min reaction) | Inhibitory rate on tyrosinase, Average (Tyrosinase [2]; after 5 min reaction) | highest inhibition rate on tyrosinase (Tyrosinase [2]) | effect on tyrosinase reaction course (in words) (Tyrosinase [2]) | inhibition rate on tyrosinase, all concentrations (Tyrosinase [2]; all concentrations (5, 0.1, 0.05, 0.025 mmol/L), after 5 min reaction) | pathological tissue findings (Masson staining and HE staining) [3] | melanin inhibition (melanocytes, melanin granules) ([3]; Masson and HE staining) | pigmentation inhibition in B. mori (B. mori) |
| --- | --- | --- | --- | --- | --- | --- | --- | --- | --- | --- | --- | --- | --- |
| Oc1ccc(OC2CCCCO2)cc1 (stereo not drawn) [deoxyarbutin] | more than 350 times | – | – | – | – | – | – | – | – | – | – | – | – |
| OC[C@H]1O[C@@H](Oc2ccc(O)cc2)[C@H](O)[C@@H](O)[C@@H]1O [β-Arbutin, reference compound] | – | more than 8 weeks | 32.70±0.33% | 53.61±1.27% | 74.31±1.81% | 72.50±0.12% | 58.28±16.85% | more than 70% | – | – | – | – | – |
| EARHSGYLPYQMF [BommoOKA_type4, mature peptide of silkworm neuropeptide Orcokinin, […]] | – | – | 13.96±0.21% | 17.02±0.11% | – | 11.28±0.22% | 15.49±3.17% | 19.69% | a certain inhibitory effect on tyrosinase | greater than 10% | inflammatory factors were reduced, and epidermal hyperplasia improved | – | – |
| FYHLYGQNFLDIDSPVSSFD [BommoOKA_type3] | – | – | 5.54±0.2% | – | 6.50±0.17% | 9.37±0.34% | 8.27±2.42% | – | a certain inhibitory effect on tyrosinase | – | – | – | – |
| NFDEIDRSSLNTFV [BommoOKA_type1, mature peptide of silkworm neuropeptide Orcokinin, […]] | – | – | 5.16±0.14% | 6.88±0.19% | 2.87±0.02% | 4.02±0.07% | 4.73±1.48% | – | seemed to tend to accelerate tyrosinase | – | loosely arranged tissues | many stretched melanin granules emerged | – |
| NFDEIDRSSMPFPYAI [BommoOKA_type2, mature peptide of silkworm neuropeptide Orcokinin, […]] | – | – | 6.69±0.15% | 6.12±0.09% | 5.16±0.09% | – | 7.02±1.88% | – | – | – | Many inflammatory cells | – | key for pigmentation inhibition |
| NLDSLGGANF [BommoOKB_type1, mature peptide of silkworm neuropeptide Orcokinin, […]] | – | – | greater than 10% | – | 8.6±1.39% | -4.02±0.82% | 9.32±8.66% | 19.69% | a certain inhibitory effect on tyrosinase | – | significant epidermal hyperplasia | – | – |
| YDYISPYG [BommoOKA_type5, mature peptide of silkworm neuropeptide Orcokinin, YDYISPYG] | – | – | -2.68±1.07% | 3.25±1.57% | -0.19±1.08% | 5.93±0.94% | 1.58±3.28% | – | – | – | inflammatory factors were reduced, and epidermal hyperplasia improved | – | – |
